Key:
[1] = target: T1, Miro1 (Homo sapiens, UniProt Q8IXI2); experiment: GTPase activity of Miro1 IPed from fibroblasts; format: biochemical; conditions: PD-2 fibroblasts, basal or depolarized condition
T1 construct: We applied compound 3 to fibroblasts from one sporadic PD patient (PD-2); endogenous in cells; host or cells: human skin fibroblasts (PD-2, Healthy-1 and further PD/control lines)
Method: (§1) FIG. 8. Related to FIG. 2-4. Miro1 Reducer in Human Cell and Fly Models. (A) Fibroblasts from Healthy-1 and PD-2 were treated, lysed, and blotted as indicated. Band intensities are normalized to those of GAPDH from the same blots and compared to “Healthy-1, no treatment”. n=4 independent experiments. (B) Fibroblasts from PD-2 were treated and immunostained as indicated. The intensity was quantified for each cell across 264-320 cells from 3 independent experiments, compared to “no treatment”. (C) Fibroblasts were treated, immunoprecipitated (IPed) with anti-Miro1, and blotted as indicated. Similar results were observed twice. (D) Similar as in (C), fibroblasts were treated as indicated, and IPed with anti-Miro1. The GTPase activity of the IPed Miro1 protein was measured as described in Method. […] The MitoSox intensity was quantified for each cell across 106-161 cells from 3 coverslips. […] The TMRM intensity was measured for each cell across 48-60 cells from 3 independent experiments, and expressed as a fraction of the mean of “Healthy-1, no treatment”. […] The movement (the intensity of non-yellow) was quantified for each cell as described in (Tsai et al., 2014) across 22-31 cells from 3 transfections. […] (1) Left: The percentage of TH-positive iPSC-derived neurons out of total cells (Dapi-positive) is calculated after immunocytochemistry under 20× as described in FIG. 3. […]

[2] = target: T1, Miro1; experiment: Ubiquitination of immunoprecipitated Miro1 after CCCP 1 hr; format: cell-based; conditions: PD-2 fibroblasts, with or without Miro1 Reducer
Method: as §1

T1 sequence (Q8IXI2 whole entry): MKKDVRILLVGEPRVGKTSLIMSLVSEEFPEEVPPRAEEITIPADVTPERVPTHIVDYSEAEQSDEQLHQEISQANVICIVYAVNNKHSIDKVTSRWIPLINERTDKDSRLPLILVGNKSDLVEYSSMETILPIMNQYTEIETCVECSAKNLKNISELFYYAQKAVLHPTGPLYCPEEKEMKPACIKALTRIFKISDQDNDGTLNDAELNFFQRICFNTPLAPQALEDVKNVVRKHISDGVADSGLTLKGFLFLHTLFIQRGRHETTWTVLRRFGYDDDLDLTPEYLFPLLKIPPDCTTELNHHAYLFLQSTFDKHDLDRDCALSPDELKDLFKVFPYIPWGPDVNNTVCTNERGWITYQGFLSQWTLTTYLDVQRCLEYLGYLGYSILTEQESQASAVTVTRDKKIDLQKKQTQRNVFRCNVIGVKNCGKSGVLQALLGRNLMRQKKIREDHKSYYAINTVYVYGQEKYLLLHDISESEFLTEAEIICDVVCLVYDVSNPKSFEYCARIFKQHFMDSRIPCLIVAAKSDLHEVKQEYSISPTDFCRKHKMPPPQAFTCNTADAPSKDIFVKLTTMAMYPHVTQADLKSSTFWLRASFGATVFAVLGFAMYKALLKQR

## O=C(Nc1ccc(Nc2cc(-n3ccnc3)ncn2)cc1)Nc1cccc(F)c1 [Miro1 Reducer]
[1]
  GTPase activity of IPed Miro1: did not affect
[2]
  depolarization-elicited increase of ubiquitination of IPed Miro1: did not occur
